For series [1], the target named is EGFR (Homo sapiens (Human), UniProt P00533). Nature of the series: EGFR kinase autophosphorylation, time-resolved fluorescence. In kind it is biochemical. Conditions: Table 1. How it is done:
Determination of the inhibitory effect of the compound on EGFR: the kinase activity of EGFR was detected according to time-resolved fluorescence detection technology to evaluate automatic phosphorylation levels. The test compound was dissolved in 100% DMSO, diluted with 25 mM HEPES (pH=7.4) to the desired concentration, added into each well with 10 μL of the test compounds and 10 μL solution containing 5 ng EGFR, then cultured for 10 min at room temperature using the recombinase diluted by 100 mM HEPES with a dilution ratio of 1:80, subsequently added with 10 μL solution containing 20 mM HEPES, 2 mM MnCl2, 100 μM Na3VO4, 1 mM DTT buffer, and 20 μL of 0.1 mM ATP and 50 mM MgCl2 and cultured for 1 h. The positive group in each plate was added with ATP-MgCl2 enzyme, the negative control group without adding with ATP-MgCl2 enzyme, the liquid was sucked out completely after cultured for 1 h, and each well was washed with buffer for three times. The wells were added with 75 μL anti-phosphorylated tyrosine antibody containing 400 ng europium labeling and cultured 1 h, washed, then added with enhancing solution.

For series [2], the system named is human hepatoma HepG2 tumor cell lines. Nature of the series: MTT antiproliferation assay, HepG2. In kind it is cell-based. Particulars: for IC50: MTT, 48 h. On the procedure:
(§1) The effects on tumor cell proliferation: the antiproliferative activities of α-(3,5-dimethoxy-benzylidene)-α′-hydrocarbonyl methylene cyclic ketone on human hepatoma HepG2 tumor cell lines and human cutaneous melanoma A16-F10 cell lines were evaluated using methyl thiazolyl tetrazolium (MTT) assay.
(§2) Experimental procedures are performed as follows: tumor cells in DMEM culture medium containing 10% fetal bovine serum, 100 U·mL^−1 penicillin and 100 U·mL^−1 streptomycin were cultured in an incubator under 5% CO2 and saturated humidity at 37. Test compounds were dissolved in dimethyl sulfoxide and then diluted with DMEM culture medium to the corresponding concentration, wherein the final concentration of dimethyl sulfoxide was less than 0.01%.
(§3) Negative control group, the blank control group and experimental groups were separately set up, each group with three double-wells. The negative control group was only added with cells but without the drug, the blank control group wad only added with dimethyl sulfoxide solution. The experimental group was added at each well with 11 μL solution containing different concentrations of the sample to be tested, such that the final concentration of the drug were […]. The cells were cultured for additional 48 h in a incubator with 5% CO2 at 37, subsequently the culture solution was gently sucked out and each well was added with 200 μL 0.5 mg/mL of MTT solution. The cells were cultured for another 6 h, then the MTT culture solution was sucked out and each well was added with 150 μL dimethyl sulfoxide, followed by oscillation dissolved for 10 min. The absorbance OD values in each well were measured at the measurement wavelength 570 nm and the reference wavelength 630 nm using a microplate reader.
Background: Tetrazolium assays rely on reduction of a dye to a coloured formazan, in cell work by metabolically active cells.

For series [3], the system named is human cutaneous melanoma A16-F10 cell lines. Nature of the series: MTT antiproliferation assay, A16-F10. The series is classed as cell-based. On the procedure:
as §1, §2, §3

Setting [4] is: Homo sapiens, HepG2, Table 2, read-out: Anti-proliferative effect on HepG2 tumor cells IC50.
Where [5] appears, read: Table 1, read-out: anti-proliferation IC50 Hep G2.
Setting [6] is: Table 1, MTT, 48 h, read-out: anti-proliferation IC50 A16-F10.
[7] abbreviates: Homo sapiens, HepG2, Table 1, read-out: anti-proliferation IC50 Hep G2.
[8] abbreviates: Homo sapiens, A16-F10, Table 1, MTT, 48 h, read-out: anti-proliferation IC50 A16-F10.

As usually defined, the melting point is the temperature of the solid-liquid transition.

Where two headings read alike, the source gives them in different places. Some results are limits rather than exact numbers.

EGFR, sequence (P00533 25-1210, species assumed): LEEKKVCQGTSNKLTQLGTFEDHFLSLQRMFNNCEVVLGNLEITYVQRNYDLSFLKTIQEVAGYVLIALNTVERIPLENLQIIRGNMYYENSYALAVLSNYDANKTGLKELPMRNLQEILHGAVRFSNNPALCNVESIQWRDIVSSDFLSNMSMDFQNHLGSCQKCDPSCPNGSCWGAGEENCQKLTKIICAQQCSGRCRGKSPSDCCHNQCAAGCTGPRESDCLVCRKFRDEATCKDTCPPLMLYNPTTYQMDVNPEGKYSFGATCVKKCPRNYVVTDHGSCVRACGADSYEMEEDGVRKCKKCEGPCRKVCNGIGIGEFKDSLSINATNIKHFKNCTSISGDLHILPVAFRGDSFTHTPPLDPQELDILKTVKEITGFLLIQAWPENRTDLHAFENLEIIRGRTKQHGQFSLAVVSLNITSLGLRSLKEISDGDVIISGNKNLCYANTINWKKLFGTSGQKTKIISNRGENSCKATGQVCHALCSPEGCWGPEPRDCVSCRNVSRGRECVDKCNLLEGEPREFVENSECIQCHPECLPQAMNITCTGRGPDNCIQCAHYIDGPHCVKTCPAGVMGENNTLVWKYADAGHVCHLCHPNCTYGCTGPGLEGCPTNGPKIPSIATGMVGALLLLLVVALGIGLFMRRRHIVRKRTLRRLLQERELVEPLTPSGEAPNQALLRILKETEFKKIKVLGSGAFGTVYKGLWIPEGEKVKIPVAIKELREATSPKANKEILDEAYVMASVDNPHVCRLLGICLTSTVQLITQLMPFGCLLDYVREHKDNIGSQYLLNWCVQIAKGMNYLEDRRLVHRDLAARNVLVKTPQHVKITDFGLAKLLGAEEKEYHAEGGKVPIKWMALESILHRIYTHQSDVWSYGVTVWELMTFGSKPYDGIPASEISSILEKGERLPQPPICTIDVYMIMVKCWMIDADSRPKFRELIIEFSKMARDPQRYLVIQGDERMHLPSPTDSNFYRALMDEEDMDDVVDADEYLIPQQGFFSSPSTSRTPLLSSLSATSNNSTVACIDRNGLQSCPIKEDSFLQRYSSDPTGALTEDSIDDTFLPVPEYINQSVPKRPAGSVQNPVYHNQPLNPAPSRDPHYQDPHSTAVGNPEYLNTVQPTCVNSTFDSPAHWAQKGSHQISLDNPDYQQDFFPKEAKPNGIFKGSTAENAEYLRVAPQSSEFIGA

Consider `COc1cccc(/C=C2\CCC/C(=C\c3cc(OC)cc(OC)c3)C2=O)c1` [(2E,6E)-2-(3,5-dimethoxybenzyl-idene)-6-(3-methoxybenzylidene)cyclohexanone], for which the IC50 in series [1] is 6.13 µM.
For the molecule `COc1cc(/C=C2\CC/C(=C\c3ccccc3)C2=O)cc(OC)c1` [(2E,5E)-2-(3,5-dimethoxybenzylidene)-5-benzylidenecyclopentanone], the IC50 in series [2] (setting [4]) stood at 11.3 µM. The “anti-proliferative effect on HepG2 tumor cell lines (in words)” value in series [2] (comparison) is reported as “significantly stronger than curcumin”.
For the molecule `COc1cc(/C=C2\CCC/C(=C\c3ccccc3Br)C2=O)cc(OC)c1` [(2E,6E)-2-(3,5-dimethoxybenzyl-idene)-6-(2-bromobenzylidene)cyclohexanone], the IC50 is 32.2 µM in series [2] (setting [5]), 8.08 µM in series [1] and 12.4 µM in series [3] (setting [6]).
`COc1cc(/C=C2\CCC/C(=C\c3ccc(Br)cc3)C2=O)cc(OC)c1` [(2E,6E)-2-(3,5-dimethoxybenzyl-idene)-6-(4-bromophenyl-methylene)cyclohexanone] returned an IC50 in series [1] of 7.12 µM.
Take `COc1cc(/C=C2\CCC/C(=C\c3ccc(N(C)C)cc3)C2=O)cc(OC)c1` [(2E,6E)-2-(3,5-dimethoxybenzyl-idene)-6-(4-dimethylaminobenzylidene)cyclohexanone]: the IC50 in series [2] (setting [5]) amounted to 11.8 µM; in series [1], 3.98 µM; in series [3] (setting [6]) it was 5.84 µM.
`COc1cc(/C=C2\CCC/C(=C\C3CCCCC3)C2=O)cc(OC)c1` [(2E,6E)-2-(3,5-dimethoxybenzyl-idene)-6-(cyclohexylmethylene)cyclohexanone]: the IC50 came out at 17.2 µM in series [2] (setting [5]), 7.52 µM in series [1] and 12.2 µM in series [3] (setting [6]).
Consider `COc1cc(/C=C2\CCC/C(=C\c3ccc(O)c(O)c3)C2=O)cc(OC)c1` [(2E,6E)-2-(3,5-dimethoxybenzylidene)-6-(3,4-dihydroxybenzylidene)cyclohexanone], for which the IC50 was 1.01 µM in series [2] (setting [7]); 0.43 µM in series [1]; 0.71 µM in series [3] (setting [8]); less than 1 µM in series [3] (Homo sapiens, A16-F10, cell line not given, read-out: anti-tumor activity IC50).
With `C#Cc1cccc(Nc2ncnc3cc(OCCOC)c(OCCOC)cc23)c1` [erlotinib, reference compound], the IC50 in series [3] (setting [8]) was found to be 0.2 µM.
For `COc1cc(/C=C2\CCC/C(=C\c3ccc(S(C)(=O)=O)cc3)C2=O)cc(OC)c1` [(2E,6E)-2-(3,5-dimethoxybenzyl-idene)-6-(4-methylsulphonylbenzylidene)cyclohexanone], the IC50 in series [1] came to 1.96 µM.
On to `COc1cc(/C=C2\CCC/C(=C\c3cccc(Cl)c3)C2=O)cc(OC)c1` [(2E,6E)-2-(3,5-dimethoxybenzyl-idene)-6-(3-chlorobenzylidene)cyclohexanone], for which the IC50 in series [1] amounted to 2.27 µM.
In the case of `COc1cc(/C=C/C(=O)CC(=O)/C=C/c2ccc(O)c(OC)c2)ccc1O` [curcumin, reference compound], in series [3] (setting [8]), the IC50 was 18.7 µM.
On to `COc1cc(/C=C2\CCC/C(=C\c3cc(OC)cc(OC)c3)C2=O)cc(OC)c1` [(2E,6E)-2,6-bis (3,5-dimethoxybenzylidene)cyclohexanone], for which the IC50 in series [2] (setting [7]) stood at 8.56 µM; in series [1] it was 2.08 µM; in series [3] (setting [8]), 4.71 µM.
Turning to `COc1cc(/C=C2\CCC/C(=C\c3ccccc3Cl)C2=O)cc(OC)c1` [(2E,6E)-2-(3,5-dimethoxybenzyl-idene)-6-(2-chlorobenzylidene)cyclohexanone], the IC50 in series [1] is 1.54 µM.
Consider `COc1cc(/C=C2\CCC/C(=C\c3cc(C(C)(C)C)c(O)c(C(C)(C)C)c3)C2=O)cc(OC)c1` [(2E,6E)-2-(3,5-dimethoxybenzylidene)-6-(3,5-di-t-butyl-4-hydroxybenzylidene)cyclohexanone], for which the IC50 in series [1] turned out to be 4.81 µM.
Still for that read-out and setting: for `COc1cc(/C=C2\CCC/C(=C\c3ccccc3)C2=O)cc(OC)c1` [(2E,6E)-2-(3,5-dimethoxy-benzylidene)-6-benzylidene cyclohexanone] the value was 1.68 µM; for `COc1cc(/C=C2\CCC/C(=C\c3cccc(Br)c3)C2=O)cc(OC)c1` [(2E,6E)-2-(3,5-dimethoxybenzylidene)-6-(3-bromobenzylidene)cyclohexanone], 6.85 µM.
Consider `COc1cc(/C=C2\CC/C(=C\c3ccc(F)cc3)C2=O)cc(OC)c1` [(2E,5E)-2-(3,5-dimethoxybenzylidene)-5-(4-fluorobenzylidene)cyclopentanone], for which the IC50 in series [2] (setting [4]) turned out to be 79.9 µM.
Molecule `COc1ccc(/C=C2\CCC/C(=C\c3cc(OC)cc(OC)c3)C2=O)cc1` [(2E,6E)-2-(3,5-dimeth-oxybenzylidene)-6-(4-methoxybenzylidene)cyclohexanone] showed an IC50 in series [1] of 18.7 µM.
Take `COc1cc(/C=C2\CCC/C(=C\c3ccc(Cl)cc3)C2=O)cc(OC)c1` [(2E,6E)-2-(3,5-dimethoxybenzyl-idene)-6-(4-chlorobenzylidene)cyclohexanone]: the results for the IC50 in series [2] (setting [5]), in series [1] and in series [3] (setting [6]) were 25.5 µM, 15.3 µM and 18.4 µM, respectively.
On to `COc1cc(/C=C2\CCC/C(=C\c3ccccc3OC)C2=O)cc(OC)c1` [(2E,6E)-2-(3,5-dimethoxybenzyl-idene)-6-(2-methoxybenzylidene)cyclohexanone], for which the IC50 in series [2] (setting [5]) and in series [3] (setting [6]) was more than 200 µM throughout.
On to `COc1cc(/C=C2\CCC/C(=C\c3ccccc3F)C2=O)cc(OC)c1` [(2E,6E)-2-(3,5-dimethoxybenzylidene)-6-(2-fluorobenzylidene)cyclohexanone], for which the IC50 in series [2] (setting [7]) came out at 7.53 µM; in series [1], 2.17 µM; in series [3] (setting [8]) it was 5.64 µM.
Molecule `COc1cc(/C=C2\CCC/C(=C\c3ccc(O)cc3)C2=O)cc(OC)c1` [(2E,6E)-2-(3,5-dimethoxybenzylidene)-6-(4-hydroxybenzylidene)cyclohexanone] yielded an IC50 in series [1] of 4.66 µM.
For the molecule `COc1cc(/C=C2\CCC/C(=C\c3ccc(F)cc3)C2=O)cc(OC)c1` [(2E,6E)-2-(3,5-dimethoxybenzyl-idene)-6-(4-fluorobenzylidene)cyclohexanone], the IC50 is 12.1 µM in series [2] (setting [5]), 5.69 µM in series [1] and 7.63 µM in series [3] (setting [6]).
Molecule `COc1cc(/C=C2\CCC/C(=C\c3ccc(OC)c(O)c3)C2=O)cc(OC)c1` [(2E,6E)-2-(3,5-dimethoxy-benzylidene)-6-(3-hydroxy-4-methoxybenzylidene)cyclohexanone] came in with a melting point of 131.2 to 131.6 °C. Besides, in series [1], the IC50 stood at 5.37 µM.

The record behind these values is US9409845B2, “Alpha-(3,5-dimethoxybenzylidene)-alpha′-hydrocarbyl methylene cyclic ketone and preparation method thereof” (PHARMAXYN LABORATORIES LTD., priority 2012, dated 2016).
